Here are results for 25 compounds from US20110112135A1, “Imidazo [1,2-A] Pyridine Compounds” (priority 2007, published 2011).

The IC50 is the concentration that inhibits the measured activity by half. A lower IC50 goes with greater potency.

A value given as a limit tells only on which side of the number the result lay.

For one test, the target named is T1, human LXRα (Homo sapiens, UniProt Q13133).
T1 construct: biotin (biotinylated); made in house; host or cells: E. coli (crude extract)
T1 sequence (Q13133 1-447): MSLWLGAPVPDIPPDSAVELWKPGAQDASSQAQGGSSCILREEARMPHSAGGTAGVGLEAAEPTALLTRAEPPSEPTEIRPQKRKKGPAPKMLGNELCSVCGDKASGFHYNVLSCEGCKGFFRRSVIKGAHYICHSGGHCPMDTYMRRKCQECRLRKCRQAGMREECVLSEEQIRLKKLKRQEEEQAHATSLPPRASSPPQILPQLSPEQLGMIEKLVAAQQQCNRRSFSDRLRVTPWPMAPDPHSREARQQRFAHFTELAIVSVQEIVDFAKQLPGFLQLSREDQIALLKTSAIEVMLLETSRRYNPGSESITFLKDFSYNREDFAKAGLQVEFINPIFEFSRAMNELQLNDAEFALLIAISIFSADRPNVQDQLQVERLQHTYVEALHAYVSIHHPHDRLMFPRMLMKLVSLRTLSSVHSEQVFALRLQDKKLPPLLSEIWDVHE
In words: Ligand-binding test procedure for human LXRα (3H T0901317 tracer, flash plates). The conditions noted are these: biotinylated hLXRα from E. coli extract; tracer 3H T0901317. The protocol:
II. Ligand-Binding Test Procedure for Human LXRα.
Receptor source: E. coli extract from cells expressing biotinylated hLXRα. Extract was made in a similar buffer as above, but with 50 mM TRIS.
(§1) Washed streptavidin and coated flash plates with wash buffer. Diluted receptor extract to give Bmax ˜4000 cpm and add to the wells. Wrapped the plates in aluminum foil and stored them at +4° C. over night.
(§2) Made a dilution series in DMSO of the test ligands. Made a 5 nM solution of the radioactive tracer in buffer. Mixed 250 μl diluted tracer with 5 μl of the test ligand from each concentration of the dilution series. Washed the receptor-coated flash plates. Added 200 μl per well of the ligand/radiolabel mixture to the receptor-coated flash plates. Wrapped the plates in aluminum foil and incubate at +4° C. over night.
(§3) Aspirated wells, and wash the flashed plates. Sealed the plate. Measured the remaining radioactivity in the plate.

The target in a further test is T2, human LXRβ (Homo sapiens, UniProt P55055).
T2 construct: biotin (biotinylated); made in house; host or cells: E. coli (crude extract)
T2 sequence (P55055 1-460): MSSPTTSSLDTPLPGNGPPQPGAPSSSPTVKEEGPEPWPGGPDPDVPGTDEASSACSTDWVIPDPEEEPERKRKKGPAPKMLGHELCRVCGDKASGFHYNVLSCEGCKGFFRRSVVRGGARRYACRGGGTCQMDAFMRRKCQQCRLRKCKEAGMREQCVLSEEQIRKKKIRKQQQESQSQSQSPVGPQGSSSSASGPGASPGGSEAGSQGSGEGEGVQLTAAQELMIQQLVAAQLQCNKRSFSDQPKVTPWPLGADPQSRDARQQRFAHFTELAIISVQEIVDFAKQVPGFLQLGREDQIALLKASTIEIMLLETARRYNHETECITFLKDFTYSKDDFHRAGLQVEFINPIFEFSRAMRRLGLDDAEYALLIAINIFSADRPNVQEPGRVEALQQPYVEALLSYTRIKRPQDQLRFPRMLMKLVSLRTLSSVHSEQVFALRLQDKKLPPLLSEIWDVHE
In words: Ligand-binding test procedure for human LXRβ (3H T0901317 tracer, flash plates). The conditions noted are these: biotinylated hLXRβ from E. coli extract; tracer 3H T0901317. The protocol: I. Ligand-Binding Test Procedure for Human LXRβ.
Receptor source: E. coli extract from cells expressing biotinylated hLXRβ. Extract was made in a similar buffer as above, but with 50 mM TRIS.
as §1, §2, §3

As to `CCc1nc2c(C(F)(F)F)cccn2c1-c1cccc(Oc2cccc(S(=O)(=O)CCCC#N)c2)c1` [Example 140, 4-[(3-{3-[2-ethyl-8-(trifluoromethyl)imidazo[1,2-a]pyridin-3-yl]phenoxy}phenyl)sulfonyl]butanenitrile], the IC50 was 910 nM at human LXRα and 69 nM at human LXRβ. As to `CCc1nc2c(C(F)(F)F)cccn2c1-c1cccc(Oc2cccc(S(=O)(=O)CCC(C)(C)O)c2)c1` [Example 22, 4-(3-(3-(2-ethyl-8-(trifluoromethyl)imidazo[1,2-a]pyridin-3-yl)phenoxy)phenylsulfonyl)-2-methylbutan-2-ol], the half-inhibitory concentration (IC50) at human LXRα was 7130 nM; on human LXRβ it was 740 nM. `CCCS(=O)(=O)c1cccc(Oc2cccc(-c3c(C)nc4c(C(F)(F)F)cccn34)c2)c1` [Example 11, 2-methyl-3-(3-(3-(propylsulfonyl)phenoxy)phenyl)-8-(trifluoromethyl)imidazo[1,2-a]pyridine]: the IC50 on human LXRα was 1480 nM; at human LXRβ, 143 nM. Turning to `Cc1nc2c(C(F)(F)F)cccn2c1-c1cccc(Oc2cc(F)cc(S(C)(=O)=O)c2)c1` [Example 15, 3-{3-[3-fluoro-5-(methylsulfonyl)phenoxy]phenyl}-2-methyl-8-(trifluoromethyl)imidazo[1,2-a]pyridine], the IC50 is 1880 nM at human LXRα and 119 nM on human LXRβ. On the same counts, the results for `CCc1nc2c(C(F)(F)F)cccn2c1-c1ccc(Oc2cccc(S(=O)(=O)CC)c2)cc1` [Example 105, 2-ethyl-3-{4-[3-(ethylsulfonyl)phenoxy]phenyl}-8-(trifluoromethyl)imidazo[1,2-a]pyridine] are more than 1000 nM and 230 nM. As to `CC(C)c1nc2c(Cl)cccn2c1-c1cccc(Oc2ccc(S(N)(=O)=O)cc2)c1` [Example 39, 4-(3-(8-chloro-2-isopropylimidazo[1,2-a]pyridin-3-yl)phenoxy)benzenesulfonamide], the IC50 is 10200 nM at human LXRα and 3650 nM at human LXRβ. For `CNCc1nc2c(C(F)(F)F)cccn2c1-c1cccc(Oc2cccc(S(C)(=O)=O)c2)c1` [Example 134, N-methyl-1-[3-{3-[3-(methylsulfonyl)phenoxy]phenyl}-8-(trifluoromethyl)imidazo[1,2-a]pyridin-2-yl]methanamine], the IC50 on human LXRβ is more than 1000 nM. As for `CCc1nc2c(C(F)(F)F)cccn2c1-c1ccc(-c2cccc(S(C)(=O)=O)c2)cc1` [Example 95, 2-ethyl-3-(3′-(methylsulfonyl)biphenyl-4-yl)-8-(trifluoromethyl)imidazo[1,2-a]pyridine], the IC50 was 2640 nM on human LXRα and 135 nM at human LXRβ.

In the case of `CCS(=O)(=O)c1cccc(Oc2cccc(-c3c(Cc4ccccc4)nc4c(C(F)(F)F)cccn34)c2)c1` [Example 29, 2-benzyl-3-(3-(3-(ethylsulfonyl)phenoxy)phenyl)-8-(trifluoromethyl)imidazo[1,2-a]pyridine], the figures for the IC50 at human LXRα and on human LXRβ were 10 nM and 1.3 nM, respectively. With `CC(C)c1nc2c(Cl)cccn2c1-c1cccc(OCc2ccc(S(C)(=O)=O)cc2)c1` [Example 57, 8-chloro-2-isopropyl-3-(3-{[4-(methylsulfonyl)benzyl]oxy}phenyl)imidazo[1,2-a]pyridine], the IC50 was more than 1000 nM on human LXRα and 8430 nM on human LXRβ. On to `CCC(C)S(=O)(=O)c1ccc(Oc2cccc(-c3c(C)nc4c(C(F)(F)F)cccn34)c2)cc1` (stereo not drawn) [Example 16, 3-{3-[4-(sec-butylsulfonyl)phenoxy]phenyl}-2-methyl-8-(trifluoromethyl)imidazo[1,2-a]pyridine], for which the IC50 was found to be 4770 nM at human LXRα and 508 nM on human LXRβ. `CCc1nc2c(C#N)cccn2c1-c1cccc(Oc2cccc(CS(C)(=O)=O)c2)c1` [Example 118, 2-ethyl-3-(3-{3-[(methylsulfonyl)methyl]phenoxy}phenyl)imidazo[1,2-a]pyridine-8-carbonitrile]: the IC50 at human LXRα and at human LXRβ was more than 1000 nM in each case. As to `CCS(=O)(=O)c1cccc(Oc2ccc(-c3c(C(C)C)nc4c(Cl)cccn34)cc2)c1` [Example 122, 8-chloro-3-{4-[3-(ethylsulfonyl)phenoxy]phenyl}-2-(1-methylethyl)imidazo[1,2-a]pyridine], the IC50 on human LXRα was more than 1000 nM; on human LXRβ, 345 nM. Regarding `CS(=O)(=O)c1cccc(Oc2cccc(-c3c(Cl)nc4c(C(F)(F)F)cccn34)c2)c1` [Example 85, 2-chloro-3-{3-[3-(methylsulfonyl)phenoxy]phenyl}-8-(trifluoromethyl)imidazo[1,2-a]pyridine], the results for the IC50 at human LXRα and on human LXRβ were 2750 nM and 83 nM, respectively.

For `CCc1nc2c(Cl)cccn2c1-c1cccc(COc2cccc(S(C)(=O)=O)c2)c1` [Example 109, 8-chloro-2-ethyl-3-(3-{[3-(methylsulfonyl)phenoxy]methyl}phenyl)imidazo[1,2-a]pyridine], the figures for the IC50 at human LXRα and at human LXRβ were more than 1000 nM and 268 nM, respectively.

`CC(C)c1nc2c(C#N)cccn2c1-c1ccc(Oc2cccc(S(C)(=O)=O)c2)cc1` [Example 123, 2-(1-methylethyl)-3-{4-[3-(methylsulfonyl)phenoxy]phenyl}imidazo[1,2-a]pyridine-8-carbonitrile] showed an IC50 on human LXRβ of more than 1000 nM. For `CCc1nc2c(C(F)(F)F)cccn2c1-c1ccc(-c2cccc(S(C)(=O)=O)c2)nc1` [Example 87, 2-ethyl-3-{6-[3-(methylsulfonyl)phenyl]pyridin-3-yl}-8-(trifluoromethyl)imidazo[1,2-a]pyridine], the IC50 at human LXRβ was 8330 nM. At human LXRβ, `CS(=O)(=O)c1cccc(Oc2ccc(-c3c(C(F)(F)F)nc4c(C(F)(F)F)cccn34)cc2)c1` [Example 125, 3-{4-[3-(methylsulfonyl)phenoxy]phenyl}-2,8-bis(trifluoromethyl)imidazo[1,2-a]pyridine] had an IC50 of 600 nM. Take `CCc1nc2c(C#N)cccn2c1-c1ccc(Oc2cccc(S(=O)(=O)CC)c2)cc1` [Example 107, 2-ethyl-3-{4-[3-(ethylsulfonyl)phenoxy]phenyl}imidazo[1,2-a]pyridine-8-carbonitrile]: on human LXRβ, the IC50 was more than 1000 nM. As for `CCS(=O)(=O)c1cccc(Oc2ccc(-c3c(C(C)C)nc4c(C#N)cccn34)cc2)c1` [Example 124, 3-{4-[3-(ethylsulfonyl)phenoxy]phenyl}-2-(1-methylethyl)imidazo[1,2-a]pyridine-8-carbonitrile], the IC50 on human LXRβ was more than 1000 nM.

`CCc1nc2c(C#N)cccn2c1-c1ccc(Oc2cccc(S(C)(=O)=O)c2)cc1` [Example 104, 2-ethyl-3-{4-[3-(methylsulfonyl)phenoxy]phenyl}imidazo[1,2-a]pyridine-8-carbonitrile] registered an IC50 at human LXRβ of more than 1000 nM. On human LXRβ, `CCc1nc2c(Cl)cccn2c1-c1ccc(COc2cccc(S(C)(=O)=O)c2)cc1` [Example 112, 8-chloro-2-ethyl-3-(4-{[3-(methylsulfonyl)phenoxy]methyl}phenyl)imidazo[1,2-a]pyridine] had an IC50 of more than 1000 nM. On to `CN1CCN(Cc2nc3c(C(F)(F)F)cccn3c2-c2cccc(Oc3cccc(S(C)(=O)=O)c3)c2)CC1` [Example 132, 2-[(4-methylpiperazin-1-yl)methyl]-3-{3-[3-(methylsulfonyl)phenoxy]phenyl}-8-(trifluoromethyl)imidazo[1,2-a]pyridine], for which, on human LXRβ, the IC50 was more than 1000 nM. The compound `CCc1nc2c(C#N)cccn2c1-c1cccc(COc2cccc(S(C)(=O)=O)c2)c1` [Example 110, 2-ethyl-3-(3-{[3-(methylsulfonyl)phenoxy]methyl}phenyl)imidazo[1,2-a]pyridine-8-carbonitrile] showed an IC50 on human LXRβ of more than 1000 nM. Compound `CC(C)NCc1nc2c(C(F)(F)F)cccn2c1-c1cccc(Oc2cccc(S(C)(=O)=O)c2)c1` [Example 136, N-{[3-{3-[3-(methylsulfonyl)phenoxy]phenyl}-8-(trifluoromethyl)imidazo[1,2-a]pyridin-2-yl]methyl}propan-2-amine] showed an IC50 on human LXRβ of more than 1000 nM.
